Laboratory results published in ChEMBL document CHEMBL4420078, “Sos1 inhibitors for cancer treatment” (2016).
Activity calls are given as the source filed them. The calls are words filed in the database; no cut-off is given here.

Experiments:
[1] = target: T1, Son of sevenless homolog 1 (Homo sapiens) (UniProt Q07889); assay: Inhibition of N-terminal 6x-His-tagged recombinant human SOS1 catalytic domain (residues 564 to 1049 residues) expressed in Escherichia coli BL21 (DE3) assessed as disruption of allosteric SOS1/Ras Y64A mutant:GTPgammaS interaction at 20 to 200 uM by Western lot analysis
T1 sequence (whole entry): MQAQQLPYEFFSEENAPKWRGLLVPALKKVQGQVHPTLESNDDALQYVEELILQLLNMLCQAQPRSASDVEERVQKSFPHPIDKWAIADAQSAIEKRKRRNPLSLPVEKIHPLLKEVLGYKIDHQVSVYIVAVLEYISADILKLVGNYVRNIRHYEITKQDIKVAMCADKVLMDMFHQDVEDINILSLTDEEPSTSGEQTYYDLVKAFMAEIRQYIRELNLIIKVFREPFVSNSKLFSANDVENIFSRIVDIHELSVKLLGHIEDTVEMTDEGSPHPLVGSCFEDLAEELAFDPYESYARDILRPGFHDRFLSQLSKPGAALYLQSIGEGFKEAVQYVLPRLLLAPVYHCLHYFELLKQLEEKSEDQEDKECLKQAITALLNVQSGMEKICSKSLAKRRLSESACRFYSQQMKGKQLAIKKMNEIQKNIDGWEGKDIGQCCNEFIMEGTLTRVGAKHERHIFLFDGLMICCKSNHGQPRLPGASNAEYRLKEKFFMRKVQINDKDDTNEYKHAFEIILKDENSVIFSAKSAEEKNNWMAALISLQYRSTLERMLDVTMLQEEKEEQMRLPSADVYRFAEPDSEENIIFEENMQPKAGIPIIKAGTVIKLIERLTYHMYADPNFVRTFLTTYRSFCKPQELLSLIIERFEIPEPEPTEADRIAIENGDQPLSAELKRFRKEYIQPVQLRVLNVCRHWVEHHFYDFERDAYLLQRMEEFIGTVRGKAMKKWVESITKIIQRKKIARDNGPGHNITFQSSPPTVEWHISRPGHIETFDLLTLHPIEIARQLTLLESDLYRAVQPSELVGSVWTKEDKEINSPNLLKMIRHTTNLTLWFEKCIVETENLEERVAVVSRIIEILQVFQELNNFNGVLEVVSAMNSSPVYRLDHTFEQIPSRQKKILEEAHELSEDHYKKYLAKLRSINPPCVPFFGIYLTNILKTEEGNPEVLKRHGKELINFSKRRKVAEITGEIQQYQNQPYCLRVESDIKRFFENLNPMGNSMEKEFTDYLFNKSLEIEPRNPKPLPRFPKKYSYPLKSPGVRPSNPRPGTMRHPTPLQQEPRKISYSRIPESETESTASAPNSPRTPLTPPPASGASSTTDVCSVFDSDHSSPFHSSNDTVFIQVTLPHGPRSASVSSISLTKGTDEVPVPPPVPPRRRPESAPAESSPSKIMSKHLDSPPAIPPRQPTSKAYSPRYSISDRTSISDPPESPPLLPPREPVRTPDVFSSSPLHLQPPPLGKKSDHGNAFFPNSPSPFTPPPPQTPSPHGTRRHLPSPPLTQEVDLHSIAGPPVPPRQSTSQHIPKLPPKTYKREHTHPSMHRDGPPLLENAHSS

[2] = target: Intersectin-1 (Homo sapiens) (UniProt Q15811); assay: Inhibition of N-terminal 6x-His-tagged recombinant human ITSN1 DH and PH domain (1227 to 1571 residues) expressed in Escherichia coli BL21 (DE3) assessed as reduction in 50 nM […] GDP/GTP nucleotide exchange upon 2 uM N-terminal-GST-tagged Cdc42 (1 to 182 residues) at 20 uM by BODIPY-FL-GDP dissociation assay
Intersectin-1 (Homo sapiens), sequence (Q15811 whole entry, the tested form may be a part): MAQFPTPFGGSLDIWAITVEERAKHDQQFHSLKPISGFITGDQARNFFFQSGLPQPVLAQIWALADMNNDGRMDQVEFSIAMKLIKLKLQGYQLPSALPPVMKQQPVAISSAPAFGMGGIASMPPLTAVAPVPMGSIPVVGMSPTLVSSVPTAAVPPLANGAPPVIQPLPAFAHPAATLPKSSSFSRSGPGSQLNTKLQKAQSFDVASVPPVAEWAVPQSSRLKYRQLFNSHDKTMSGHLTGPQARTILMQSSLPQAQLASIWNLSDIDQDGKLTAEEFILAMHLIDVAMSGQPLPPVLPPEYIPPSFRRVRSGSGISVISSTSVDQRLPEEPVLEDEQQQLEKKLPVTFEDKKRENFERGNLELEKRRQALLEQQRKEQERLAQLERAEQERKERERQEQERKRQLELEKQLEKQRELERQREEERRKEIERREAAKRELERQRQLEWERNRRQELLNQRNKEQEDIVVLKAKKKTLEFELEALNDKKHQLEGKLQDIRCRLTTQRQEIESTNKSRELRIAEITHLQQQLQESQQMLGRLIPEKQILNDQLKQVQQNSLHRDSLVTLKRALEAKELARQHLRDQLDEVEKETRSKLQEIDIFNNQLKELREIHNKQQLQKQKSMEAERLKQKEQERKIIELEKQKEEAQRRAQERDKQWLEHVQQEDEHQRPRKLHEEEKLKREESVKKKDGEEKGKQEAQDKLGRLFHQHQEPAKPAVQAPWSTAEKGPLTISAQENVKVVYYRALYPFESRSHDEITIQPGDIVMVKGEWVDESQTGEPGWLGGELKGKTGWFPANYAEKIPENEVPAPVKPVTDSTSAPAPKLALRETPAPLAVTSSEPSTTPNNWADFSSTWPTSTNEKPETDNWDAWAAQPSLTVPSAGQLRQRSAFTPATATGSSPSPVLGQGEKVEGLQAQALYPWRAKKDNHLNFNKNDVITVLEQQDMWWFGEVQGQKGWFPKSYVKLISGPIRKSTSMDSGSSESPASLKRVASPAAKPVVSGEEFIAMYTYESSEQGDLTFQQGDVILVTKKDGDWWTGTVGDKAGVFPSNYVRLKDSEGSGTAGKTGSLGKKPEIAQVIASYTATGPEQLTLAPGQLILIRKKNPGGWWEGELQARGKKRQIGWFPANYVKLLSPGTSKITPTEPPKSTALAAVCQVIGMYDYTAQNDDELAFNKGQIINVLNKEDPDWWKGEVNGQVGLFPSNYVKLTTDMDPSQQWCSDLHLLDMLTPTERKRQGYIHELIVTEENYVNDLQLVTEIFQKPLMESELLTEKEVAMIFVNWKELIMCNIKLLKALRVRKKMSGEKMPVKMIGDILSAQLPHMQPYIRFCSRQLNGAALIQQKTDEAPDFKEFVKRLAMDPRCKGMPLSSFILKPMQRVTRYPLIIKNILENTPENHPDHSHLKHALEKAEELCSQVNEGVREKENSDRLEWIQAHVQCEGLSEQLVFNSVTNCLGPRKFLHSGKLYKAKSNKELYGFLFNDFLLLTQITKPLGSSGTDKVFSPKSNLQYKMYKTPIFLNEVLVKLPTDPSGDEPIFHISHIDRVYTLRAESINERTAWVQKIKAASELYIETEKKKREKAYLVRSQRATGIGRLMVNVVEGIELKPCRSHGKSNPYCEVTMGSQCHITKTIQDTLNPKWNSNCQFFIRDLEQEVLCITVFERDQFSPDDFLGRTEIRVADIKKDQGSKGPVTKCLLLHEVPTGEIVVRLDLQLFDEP

Compound	inhibition [1]	inhibition [2]
O=[N+]([O-])c1ccccc1/C=C/C=C1c2ccccc2-c2ccccc21	Active	
O=C(O)c1cc2c3c(c1)C1C=CCC1C(c1ccccc1Cl)N3CC1CC=CC21 (configuration not stated)		inactive
